# Laboratory results: patent US9101628B2, “Methods and composition of treating a flaviviridae family viral infection” (The Board of Trustees of the Leland Stanford Junior …, priority 2007, dated 2015)
# Test system: HCV RNA replication
# Experiment: RNA replication inhibition assay (luciferase reporter-linked HCV genome)
# Conditions: Hepatitis C virus, percentage of untreated control population; for activity at 5 µM: read-out: Residual Luciferase activity, 5 micromolar; for activity at 10 µM: read-out: Residual Luciferase activity, 10 micromolar
structure (smiles),measurement,value
CCCN(CCC)Cc1nc2ccccc2n1Cc1ccc(Cl)cc1 [Compound 5],activity at 5 µM,< 80%
same,activity at 10 µM,< 55%
COCC1CCN(Cc2nc3ccccc3n2Cc2ccc(Cl)cc2)C1 (centres unmarked) [Compound 6],activity at 5 µM,> 80%
same,activity at 10 µM,< 80%
COC(=O)C1CCN(Cc2nc3ccccc3n2Cc2ccc(Cl)cc2)C1 (centres unmarked) [Compound 7],activity at 5 µM,> 80%
same,activity at 10 µM,> 80%
COC(=O)C1CCCN1Cc1nc2ccccc2n1Cc1ccc(Cl)cc1 (centres unmarked) [Compound 8],activity at 5 µM,< 55%
same,activity at 10 µM,< 55%
COCC1CCCN1Cc1nc2ccccc2n1Cc1ccc(Cl)cc1 (centres unmarked) [Compound 10],activity at 5 µM,< 80%
same,activity at 10 µM,< 80%
O=C1CCCN1Cc1nc2ccccc2n1Cc1ccc(Cl)cc1 [Compound 12],activity at 5 µM,< 80%
same,activity at 10 µM,< 80%
COC(=O)c1ccc(Cn2c(CN3CCCC3)nc3ccccc32)cc1 [Compound 14],activity at 5 µM,< 80%
same,activity at 10 µM,< 80%
O=C(O)c1ccc(Cn2c(CN3CCCC3)nc3ccccc32)cc1 [Compound 15],activity at 5 µM,> 80%
same,activity at 10 µM,> 80%
COC(=O)c1cccc(Cn2c(CN3CCCC3)nc3ccccc32)c1 [Compound 16],activity at 5 µM,> 80%
same,activity at 10 µM,> 80%
O=C(O)c1cccc(Cn2c(CN3CCCC3)nc3ccccc32)c1 [Compound 17],activity at 5 µM,> 80%
same,activity at 10 µM,> 80%
Clc1cccc(Cn2c(CN3CCCC3)nc3ccccc32)c1 [Compound 18],activity at 5 µM,< 80%
same,activity at 10 µM,< 80%
Clc1ccccc1Cn1c(CN2CCCC2)nc2ccccc21 [Compound 19],activity at 5 µM,> 80%
same,activity at 10 µM,> 80%
c1ccc2c(c1)nc(CN1CCCC1)n2Cc1ccncc1 [Compound 20],activity at 5 µM,> 80%
same,activity at 10 µM,> 80%
c1cncc(Cn2c(CN3CCCC3)nc3ccccc32)c1 [Compound 21],activity at 5 µM,> 80%
same,activity at 10 µM,> 80%
c1ccc2c(c1)nc(CN1CCCC1)n2CC1CCCCC1 [Compound 22],activity at 5 µM,> 80%
same,activity at 10 µM,< 80%
O[C@H]1CCN(Cc2nc3ccccc3n2Cc2ccc(Cl)cc2)C1 [Compound 23],activity at 5 µM,> 80%
same,activity at 10 µM,> 80%
O[C@@H]1CCN(Cc2nc3ccccc3n2Cc2ccc(Cl)cc2)C1 [Compound 24],activity at 5 µM,> 80%
same,activity at 10 µM,> 80%
OC[C@@H]1CCCN1Cc1nc2ccccc2n1Cc1ccc(Cl)cc1 [Compound 25],activity at 5 µM,< 80%
same,activity at 10 µM,< 55%
CC1CCC(C)N1Cc1nc2ccccc2n1Cc1ccc(Cl)cc1 (centres unmarked) [Compound 26],activity at 5 µM,> 80%
same,activity at 10 µM,> 80%
Clc1ccc(Cn2c(CN3CCCCCC3)nc3ccccc32)cc1 [Compound 27],activity at 5 µM,< 80%
same,activity at 10 µM,< 55%
Cc1ccc2c(c1)nc(CN1CCCC1)n2Cc1ccc(Cl)cc1 [Compound 28],activity at 5 µM,> 80%
same,activity at 10 µM,< 55%
COCC1CCCN1Cc1nc2cc(C)ccc2n1Cc1ccc(Cl)cc1 (centres unmarked) [Compound 29],activity at 5 µM,> 80%
same,activity at 10 µM,< 55%
COCC1CCCN1Cc1nc2c(C)c(C)ccc2n1Cc1ccc(Cl)cc1 (centres unmarked) [Compound 31],activity at 5 µM,< 80%
same,activity at 10 µM,< 55%
Clc1ccc(Cn2c(CN3CCCC3)nc3ccccc32)s1 [Compound 32],activity at 5 µM,< 80%
same,activity at 10 µM,< 80%
Cc1ccc2c(nc(CN3CCCC3=O)n2Cc2ccc(Cl)cc2)c1C [Compound 33],activity at 5 µM,> 80%
same,activity at 10 µM,> 80%
CC(=O)N1CCCC(Cn2c(CN3CCCC3)nc3ccccc32)C1 (centres unmarked) [Compound 34],activity at 5 µM,> 80%
same,activity at 10 µM,> 80%
CS(=O)(=O)N1CCCC(Cn2c(CN3CCCC3)nc3ccccc32)C1 (centres unmarked) [Compound 35],activity at 5 µM,> 80%
same,activity at 10 µM,> 80%
c1ccc2c(c1)nc(CN1CCCC1)n2CC1CCNCC1 [Compound 36],activity at 5 µM,< 80%
same,activity at 10 µM,> 80%
CC(=O)N1CCC(Cn2c(CN3CCCC3)nc3ccccc32)CC1 [Compound 37],activity at 5 µM,< 80%
same,activity at 10 µM,> 80%
CS(=O)(=O)N1CCC(Cn2c(CN3CCCC3)nc3ccccc32)CC1 [Compound 38],activity at 5 µM,< 80%
same,activity at 10 µM,> 80%
c1ccc2c(c1)nc(CN1CCCC1)n2CC1CCCNC1 (centres unmarked) [Compound 39],activity at 5 µM,< 80%
same,activity at 10 µM,< 80%
Cc1ccc(Cn2c(CN3CCCC3)nc3ccccc32)cc1 [Compound 40],activity at 5 µM,< 80%
same,activity at 10 µM,< 80%
CC(C)c1ccc(Cn2c(CN3CCCC3)nc3ccccc32)cc1 [Compound 41],activity at 5 µM,< 80%
same,activity at 10 µM,< 80%
FC(F)Oc1ccc(Cn2c(CN3CCCC3)nc3ccccc32)cc1 [Compound 42],activity at 5 µM,> 80%
same,activity at 10 µM,< 80%
Clc1ccc(Cn2c(-c3cncs3)nc3ccccc32)cc1 [Compound 43],activity at 5 µM,< 80%
same,activity at 10 µM,< 55%
O=C(O)c1ccc2c(c1)ncn2Cc1ccc(Cl)cc1 [Compound 44],activity at 5 µM,< 80%
same,activity at 10 µM,> 80%
O=C(O)c1ccc2ncn(Cc3ccc(Cl)cc3)c2c1 [Compound 45],activity at 5 µM,> 80%
same,activity at 10 µM,> 80%
Clc1ccc(CCn2cnc3ccccc32)cc1 [Compound 46],activity at 5 µM,> 80%
same,activity at 10 µM,< 80%
Cc1cc2nc(CN3CCC[C@H]3CO)n(Cc3ccc(Cl)cc3)c2cc1C [Compound 47],activity at 5 µM,< 80%
same,activity at 10 µM,< 80%
Cc1cc2nc(CN3CCC[C@@H]3CO)n(Cc3ccc(Cl)cc3)c2cc1C [Compound 48],activity at 5 µM,> 80%
same,activity at 10 µM,< 80%
Cc1cc2nc(CN3CCCC3C)n(Cc3ccc(Cl)cc3)c2cc1C (centres unmarked) [Compound 49],activity at 5 µM,< 55%
same,activity at 10 µM,< 55%
Cc1cc2nc(CN3CCC[C@H]3CN3CCCC3)n(Cc3ccc(Cl)cc3)c2cc1C [Compound 50],activity at 5 µM,< 20%
same,activity at 10 µM,< 20%
Cc1cc2nc(CN3CCCC3c3ccccn3)n(Cc3ccc(Cl)cc3)c2cc1C (centres unmarked) [Compound 51],activity at 5 µM,< 20%
same,activity at 10 µM,< 20%
Cc1cc2nc(CN3CCCC3C(N)=O)n(Cc3ccc(Cl)cc3)c2cc1C (centres unmarked) [Compound 52],activity at 5 µM,< 80%
same,activity at 10 µM,< 80%
Cc1ccc2c(c1)ncn2Cc1ccc(Cl)cc1 [Compound 53],activity at 5 µM,< 55%
same,activity at 10 µM,< 20%
Fc1cc2ncn(Cc3ccc(Cl)cc3)c2cc1Cl [Compound 55],activity at 5 µM,< 80%
same,activity at 10 µM,< 80%
COc1ccc2c(c1)ncn2Cc1ccc(Cl)cc1 [Compound 56],activity at 5 µM,< 80%
same,activity at 10 µM,< 55%
COc1cc2ncn(Cc3ccc(Cl)cc3)c2cc1OC [Compound 57],activity at 5 µM,< 80%
same,activity at 10 µM,< 55%
Clc1ccc(Cn2cnc3cc(Cl)ccc32)cc1 [Compound 58],activity at 5 µM,< 80%
Cc1ccc2c(ncn2Cc2ccc(Cl)cc2)c1C [Compound 59],activity at 5 µM,< 55%
same,activity at 10 µM,< 55%
Oc1ccc2c(c1)ncn2Cc1ccc(Cl)cc1 [Compound 60],activity at 5 µM,< 20%
same,activity at 10 µM,< 20%
Oc1ccc2ncn(Cc3ccc(Cl)cc3)c2c1 [Compound 61],activity at 5 µM,> 80%
same,activity at 10 µM,< 80%
Cc1cc2nc(CN3CCCC3=O)n(Cc3ccc(Cl)cc3)c2cc1C [Compound 63],activity at 5 µM,< 80%
same,activity at 10 µM,> 80%
Clc1ccc(Cn2cnc3cc4c(cc32)OCCO4)cc1 [Compound 64],activity at 5 µM,< 80%
same,activity at 10 µM,< 80%
